From patent publication US4839355A, “Tricyclic-pyridinylquinoline compounds, their preparation and use” (Sterling Drug Inc., priority 1988, dated 1989) come the findings set out here.

For series [1], the system named is E. coli. Description: In vivo antibacterial activity in female mice, E. coli infection. Also on record: species or system Escherichia coli. As to conditions: mouse; for ED50: Escherichia coli, 168 h, one-half hour postinfection, deaths over seven days. How it is done: (§1) The in vivo antibacterial activity of the compounds of the invention was determined in female mice, 18-20 grams each. Aqueous solutions of the compounds to be tested were prepared by dissolving the free acid form in dilute sodium hydroxide and diluting the solution with distilled water to the desired concentration.
(§2) Cultures of E. coli were grown in brain heart infusion broth, and the mice were inoculated intraperitoneally with 0.5 ml of the bacterial test inoculum suspended in saline. Cultures of Staph. aureus were thawed from frozen pooled stocks and mixed with 5% mucin. A 0.5 ml preparation was used to infect mice by i.p. inoculation.
(§3) The mice were medicated subcutaneously (sc) or orally (po) with 0.5 ml of the test compound solution one-half hour postinfection. Deaths were recorded daily for seven days. Fifty percent protective dose values (PD50) were calculated using probit analyis.

In series [2] the test system is Bacteroides fragilis. Nature of the series: In vitro antimicrobial activity, microplate dilution MIC, Bacteroides fragilis. As to conditions: 10^5 microorganism/ml, anaerobic, read-out: MIC (minimal inhibitory concentration), BF. Format: cell-based. How it is done:
(§4) The in vitro antimicrobial activity of the compounds of the invention was determined by a microplate dilution procedure. Bacterial cultures were grown in Meuller Hintom II (cation supplemented) broth (S. aureus, S. faecalis, M. luteus, E. coli and P. aeruginosa), Brain Heart Infusion (BHI) broth supplemented with 10% heat inactivated horse serum (S. penumoniae) or BHI broth supplemented with 5 mcg/ml Hemin and 0.5 mcg/ml vitamin K (B. fragilis) at 37° C. for 18-24 hrs. The cultures were grown under aerobic conditions with the exception of B. fragilis which was grown 48 hrs. under anaerobic conditions (atmosphere 5% CO2, 10% H2 and 85% N2). Resulting suspensions were diluted 1/10 in the appropriate broth or used undiluted for the inoculum. Aqueous solutions of the compounds of the invention were solubilized in dimethylsulfoxide (DMSO) at the desired concentration and 200 mcl were dispensed into the first row of wells of a sterile microplate. The compounds were then serially diluted two-fold in DMSO to give a working stock concentration range plate. The last row of wells was left compound-free receiving only DMSO to serve as a growth control. Five mcl from each well of the working stock plate was transferred to corresponding wells of a separate plate containing 95 mcl/well of the appropriate broth. All dilutions were made with either an automated dilutor or manually. The wells of microplate containing the desired compound concentrations and compound-free growth controls in broth were then inoculated using the MIC 2000 inoculator which delivers 1.5 mcl/well to give a final inoculum level of 10^4 microorganism/well or 10^5 microorganism/ml. Plates were incubated as described above and read for visible growth. The minimal inhibitory concentration (MIC: expressed in mcg/ml) of each compound tested against each test microorganism was determined as the lowest concentration of compound which prevents visible microbial growth.

A short description of series [3]: Serum levels in monkeys after oral dosing. Format: in vivo. As to conditions: 25 mg/kg oral.
Series [4] deals with Escherichia coli. Nature of the series: In vitro antimicrobial activity, microplate dilution MIC, Escherichia coli. The format is cell-based. As to conditions: 10^5 microorganism/ml, read-out: MIC (minimal inhibitory concentration), EC. How it is done:
as §4

The subject of series [5] is Streptococcus faecalis. Description: In vitro antimicrobial activity, microplate dilution MIC, Streptococcus faecalis. The format is cell-based. As to conditions: Enterococcus faecalis, Streptococcus faecalis, 10^5 microorganism/ml, read-out: MIC (minimal inhibitory concentration), SF. How it is done: as §4
The test system of series [6] is Staph. aureus. Description: In vivo antibacterial activity in female mice, Staph. aureus infection. Also on record: species or system Staphylococcus aureus. As to conditions: Staphylococcus aureus, 168 h, mouse, one-half hour postinfection, deaths over seven days. How it is done: as §1, §2, §3
The subject of series [7] is Pseudomonas aeruginosa. Nature of the series: In vitro antimicrobial activity, microplate dilution MIC, Pseudomonas aeruginosa. Format: cell-based. As to conditions: 10^5 microorganism/ml, read-out: MIC (minimal inhibitory concentration), PA. As for the experimental part:
as §4

Series [8] relates to Micrococcus luteus. Nature of the series: In vitro antimicrobial activity, microplate dilution MIC, Micrococcus luteus. Format: cell-based. As to conditions: 10^5 microorganism/ml, read-out: MIC (minimal inhibitory concentration), ML. How it is done:
as §4

The test system of series [9] is Streptococcus pneumoniae. Nature of the series: In vitro antimicrobial activity, microplate dilution MIC, Streptococcus pneumoniae. Format: cell-based. As to conditions: 10^5 microorganism/ml, 10% horse serum in BHI broth, read-out: MIC (minimal inhibitory concentration), SP. As for the experimental part:
as §4

In series [10] the test system is bacteria. Description: In vitro antimicrobial activity, overall comparison over the bacterial panel. Format: cell-based. As to conditions: Table I MICs. How it is done: as §4
Series [11] deals with Staphylococcus aureus. Nature of the series: In vitro antimicrobial activity, microplate dilution MIC, Staphylococcus aureus. The format is cell-based. How it is done:
as §4

[12] abbreviates: Staph. aureus, from Table I MICs.

In brackets after ≈: the same amount, converted by molar mass. Read-outs that look alike come from different tables or passages of the source.

`Cc1cc(-c2c(F)cc3c(=O)c(C(=O)O)cn4c3c2OC[C@@H]4C)cc(C)n1` [B, (S)-10-(2,6-Dimethyl-4-pyridinyl)-9-fluoro-3-methyl-7-oxo-2,3-dihydro-7H-pyrido[1,2,3-de][1,4]benzoxazine-6-carboxylic acid]: the ED50 in [1] (po, read-out: PD50 (fifty percent protective dose), E. coli, po) came out at 3 mg/kg; in series [1] (sc, read-out: PD50 (fifty percent protective dose), E. coli, sc), 1.4 mg/kg; in [6] (po, read-out: PD50 (fifty percent protective dose), Staph. aureus, po), 0.03 mg/kg; in series [6] (sc, read-out: PD50 (fifty percent protective dose), Staph. aureus, sc), 0.02 mg/kg. Further, in series [1] (Table II), the “in vivo activity against E. coli compared with compounds P and Q” value is “approximately equal in activity to compound Q and slightly less active than compound P against E. coli”. The MIC in series [2] was determined as 0.25 µg/mL (≈ 0.679 µM); in series [4] it was 0.03 µg/mL (≈ 0.0814 µM); in [5], 0.06 µg/mL (≈ 0.163 µM); in series [7], 4 µg/mL (≈ 10.9 µM); in series [8], 0.25 µg/mL (≈ 0.679 µM); in series [9], 0.03 µg/mL (≈ 0.0814 µM). Further, the MIC in series [11] (Staphylococcus aureus, in vitro, 10^5 microorganism/ml, read-out: MIC (minimal inhibitory concentration), SA) is 0.008 µg/mL (≈ 0.0217 µM). Besides, the serum levels entry in series [3] was “high and prolonged serum levels”. In [3] (monkey, serum), this compound gave a half-life of 16 h. Besides, the Cmax in series [3] (monkey, serum, read-out: maximum concentration (serum)) worked out at 25000 ng/mL. In addition, the Tmax in series [3] (monkey, serum, read-out: time of maximum concentration (serum)) worked out at 3.5 h. For the same compound, in series [10], the “in vitro activity compared with prior art compounds P and Q” value is “substantilly more active than the prior art compounds (P and Q) against all of the organisms except E. coli and P. aeruginosa”. Moreover, in series [11] (setting [12]), the “in vitro activity relative to compound P” value is reported as “thirty times as active as compound P”. Also, in [11] (setting [12]), the “in vitro activity relative to compound Q” value is given as “four times as active as compound Q”.

By half-life is commonly meant the time needed for the level to fall by half in the phase considered.
